Assay results as given in PMC4335020, “Single Oral Dose Pharmacokinetics of Decursin and Decursinol Angelate in Healthy Adult Men and Women” (PLoS ONE, 2015).
Where two headings read alike, the source gives them in different places.

Experiment: Single oral dose human plasma pharmacokinetics of D, DA and DOH after Cogni.Q
Format: in vivo
Conditions: for Cmax / Tmax / half-life / AUC(0-t): plasma
Text: Ten healthy male and 10 female subjects were recruited by public announcement in Amarillo, TX, from January 2013 to April 2013 (see Fig. 1 CONSORT diagram). The sample size for each gender was chosen without power calculation due to the lack of prior knowledge of PK parameter variance in humans. After receiving informed consent verbally and in writing, the health status of each candidate was confirmed by health questionnaire, plasma biochemistry (hepatic and renal functions), complete blood cell count (CBC), and a physical examination by a participating academic physician. Subjects with diabetes, or pregnant, perinatal and breastfeeding women were excluded. For the 48 hours preceding study visit until the final blood draw, all subjects were instructed to avoid taking any prescription or nonprescription drugs, vitamins, and herbal/dietary supplements. Each subject was compensated for participating in the study per TTUHSC IRB approved rate.
Eligible subjects arrived at our clinical facility at 0700 (7:00 am) on the test day after a fast beginning at 2200 (10:00 pm) the previous night. After a brief review of vital signs, the nurse placed an intravenous (IV) line with saline drip in one arm of each subject. A baseline pre-dose (hour 0) blood sample was drawn through the IV line; after that subjects swallowed four Cogni.Q vegicaps with 240 mL of water at hour 0 under direct supervision. Subjects stayed at the clinical facility in their room for the next 12 hours, returning at 24 and 48 hours. Blood was drawn at baseline (hour 0) and at 0.5, 1, 2, 3, 4, 6, 8, 12, 24 and 48 hours after dosing into Vacutainer Blood Collection Tube (Becton-Dickinson, Franklin Lakes, NJ. Product Number: 367874, Sodium heparin was used as anti-coagulant). Water was allowed as desired except for within the first hour after Cogni.Q consumption. All subjects received standardized meals at post-dose hours 4.5 and 9.5 but no food was allowed for at least the first 4 hours post-dose.
Plasma was prepared by centrifuging the heparinized blood at 1000 g for 15 minutes at room temperature. Urine samples (40mL) were collected within time spans of 0–4, 4–8, 8–12 and 12–24 hours (total volume of urine was recorded). All plasma and urine samples were put on dry ice immediately and then stored at -80°C freezer until analysis.
Plasma samples were extracted with a validated solid supported liquid extraction (SLE) method facilitated with a positive pressure manifold (Biotage, Charlotte, NC). Briefly, 100 μL of plasma sample was spiked with 5 μL of 10 ng/μL prednisolone (IS), diluted with 200 μL of LC-MS grade water, mixed and loaded onto ISOLUTE SLE+ 400 μL Array Well cartridges (Biotage, Charlotte, NC). A pulse of minimum positive pressure was applied to facilitate the samples absorption into the cartridges. After the samples were allowed to absorb for 5 min, the compounds were eluted with 2×500 μL tert-butyl methyl ether. The eluent was dried in a Speedvac and the resulting residue was reconstituted in 50 μL of methanol for UHPLC-MS/MS analysis.
Eight-point calibration curves were constructed for D, DA and DOH, at concentrations of 0.1, 0.5, 1, 5, 10, 20, 50 and 100 μg/L for D and DA, and at concentrations of 1, 5, 10, 50, 100, 200, 500 and 1000 μg/L for DOH, respectively. The linear range was 0.1–100 μg/L (0.3–300 nmol/L), 0.1–100 μg/L (0.3–300 nmol/L) and 1–1000 μg/L (4–4000 nmol/L) for D, DA and DOH, respectively. The inter- and intra-assay CV were lower than 6.5% and the accuracy was between 90–105%. Calibration curve was run for each batch of samples analyzed. The mean calibration curve correlation coefficient (r) for D, DA and DOH was 0.999, 0.999 and 0.998, respectively (data from 7–10 calibration curves). In addition, 70% of the plasma samples were extracted and analyzed twice, the data from two replicate analyses were nearly identical and combined for final data analyses and presentation. […]

With `C/C=C(/C)C(=O)O[C@H]1Cc2cc3ccc(=O)oc3cc2OC1(C)C` [DA, decursinol angelate] the Cmax (all human subjects n = 20, single oral dose 4 Cogni.Q vegicaps (119 mg D, 77 mg DA), read-out: Cmax, nmol/L Mean (SD)) was 48.1 nmol/L, the “variation in C max and AUC0–48h among individual subjects” value (all subjects) was no more than 60 fold and the Cmax (both sexes, human, oral, 4 Cogni.Q vegicaps, n=20 (S1 Table), read-out: Cmax, nM, Grand Mean) was 48.1 nmol/L. For the same molecule, the Tmax (both sexes, human, oral, 4 Cogni.Q vegicaps, n=20 (S1 Table), read-out: Tmax, h, Grand Mean) was 2.4 h, the half-life (both sexes, human, oral, all subjects, outliers excluded (S1 Table), read-out: Terminal t1/2, h, Grand Mean (converted)) was 19.3 h and the AUC(0-t) (both sexes, human, oral, n=20 (S1 Table), read-out: AUC0-48h, Grand Mean) was 335 nmol·h/L. The Cmax (both sexes, human, po, all human subjects n = 20, single oral dose 4 Cogni.Q vegicaps (119 mg D, 77 mg DA), read-out: Cmax, nmol/L Mean (SD)) was 48 nmol/L, the Tmax (both sexes, human, po, all human subjects n = 20, single oral dose 4 Cogni.Q vegicaps (119 mg D, 77 mg DA), read-out: Tmax, h, Mean (SD)) was 2.4 h and the AUC(0-t) (both sexes, human, po, all human subjects n = 20, single oral dose Cogni.Q, plasma (Table 2), read-out: AUC0–48h, nmol/L, Mean (SD)) was 335 nmol·h/L. For the same molecule, the half-life (both sexes, human, po, all human subjects, four outlier subjects excluded, single oral dose Cogni.Q, read-out: Terminal t1/2, h, Mean (SD) (converted)) was 19.3 h, the AUC(0-t) (both sexes, human, po, twenty healthy subjects, single oral dose Cogni.Q, plasma (abstract), read-out: mean area under the curve (AUC0-48h)) was 335 nmol·h/L and the AUC(0-t) (female, human, oral, 4 Cogni.Q vegicaps, Women n=10 (S1 Table), read-out: AUC0-48h, Mean, F) was 344 nmol·h/L. It also gave a Cmax (female, human, oral, 4 Cogni.Q vegicaps, Women n=10 (S1 Table), read-out: Cmax, nM, Mean, F) of 43.9 nmol/L, a Tmax (female, human, oral, Women n=10 (S1 Table), read-out: Tmax, h, Mean, F) of 2.7 h and a half-life (female, human, oral, Women, outliers excluded (S1 Table), read-out: Terminal t1/2, h, Mean, F (converted)) of 23.7 h. The AUC(0-t) (female, human, po, Women N = 10, single oral dose Cogni.Q, read-out: AUC0–48h, h.nmol/L Mean (SD)) was 344 nmol·h/L, the Cmax (female, human, po, Women N = 10, single oral dose Cogni.Q, read-out: Cmax, nmol/L, Mean (SD)) was 43.9 nmol/L and the Tmax (female, human, po, Women N = 10, single oral dose Cogni.Q, read-out: Tmax, h, Mean (SD)) was 2.7 h. For the same molecule, the half-life (female, human, po, Women, outlier subjects excluded, single oral dose Cogni.Q, read-out: T1/2, h, terminal Mean (SD) (converted)) was 23.7 h, the half-life (human, oral, 4 Cogni.Q vegicaps, subject S1 (115 lb), outlier, excluded from means, read-out: Terminal t1/2, h (converted)) was 20.2 h and the AUC(0-t) (human, oral, 4 Cogni.Q vegicaps, subject S1 (115 lb), read-out: AUC0-48h) was 190 nmol·h/L. For the same molecule, the Cmax (human, oral, 4 Cogni.Q vegicaps, subject S1 (115 lb), read-out: Cmax) was 23.4 nmol/L, the Tmax (human, oral, 4 Cogni.Q vegicaps, subject S1 (115 lb), read-out: Tmax) was 2 h and the AUC(0-t) (human, oral, 4 Cogni.Q vegicaps, subject S2 (194 lb), read-out: AUC0-48h) was 97.5 nmol·h/L. It also gave a Cmax (human, oral, 4 Cogni.Q vegicaps, subject S2 (194 lb), read-out: Cmax) of 13.4 nmol/L, a half-life (human, oral, 4 Cogni.Q vegicaps, subject S2 (194 lb), read-out: Terminal t1/2, h (converted)) of 38.6 h and a Tmax (human, oral, 4 Cogni.Q vegicaps, subject S2 (194 lb), read-out: Tmax) of 3 h. For the same molecule, the half-life (human, oral, 4 Cogni.Q vegicaps, subject S3 (170 lb), outlier, excluded from means, read-out: Terminal t1/2, h (converted)) was 31.4 h, the AUC(0-t) (human, oral, 4 Cogni.Q vegicaps, subject S3 (170 lb), read-out: AUC0-48h) was 142 nmol·h/L and the Cmax (human, oral, 4 Cogni.Q vegicaps, subject S3 (170 lb), read-out: Cmax) was 27.2 nmol/L. The Tmax (human, oral, 4 Cogni.Q vegicaps, subject S3 (170 lb), read-out: Tmax) was 6 h, the AUC(0-t) (human, oral, 4 Cogni.Q vegicaps, subject S4 (170 lb), read-out: AUC0-48h) was 1060 nmol·h/L and the Cmax (human, oral, 4 Cogni.Q vegicaps, subject S4 (170 lb), read-out: Cmax) was 100 nmol/L. The half-life (human, oral, 4 Cogni.Q vegicaps, subject S4 (170 lb), read-out: Terminal t1/2, h (converted)) was 17.7 h, the Tmax (human, oral, 4 Cogni.Q vegicaps, subject S4 (170 lb), read-out: Tmax) was 2 h and the AUC(0-t) (human, oral, 4 Cogni.Q vegicaps, subject S5 (161 lb), read-out: AUC0-48h) was 294 nmol·h/L. The Cmax (human, oral, 4 Cogni.Q vegicaps, subject S5 (161 lb), read-out: Cmax) was 21.4 nmol/L, the half-life (human, oral, 4 Cogni.Q vegicaps, subject S5 (161 lb), read-out: Terminal t1/2, h (converted)) was 12 h and the Tmax (human, oral, 4 Cogni.Q vegicaps, subject S5 (161 lb), read-out: Tmax) was 1 h. The AUC(0-t) (human, oral, 4 Cogni.Q vegicaps, subject S6 (120 lb), read-out: AUC0-48h) was 696 nmol·h/L, the Cmax (human, oral, 4 Cogni.Q vegicaps, subject S6 (120 lb), read-out: Cmax) was 84.3 nmol/L and the half-life (human, oral, 4 Cogni.Q vegicaps, subject S6 (120 lb), read-out: Terminal t1/2, h (converted)) was 16.2 h. The Tmax (human, oral, 4 Cogni.Q vegicaps, subject S6 (120 lb), read-out: Tmax) was 3 h, the AUC(0-t) (human, oral, 4 Cogni.Q vegicaps, subject S7 (180 lb), read-out: AUC0-48h) was 432 nmol·h/L and the Cmax (human, oral, 4 Cogni.Q vegicaps, subject S7 (180 lb), read-out: Cmax) was 74.3 nmol/L. The half-life (human, oral, 4 Cogni.Q vegicaps, subject S7 (180 lb), read-out: Terminal t1/2, h (converted)) was 17.4 h, the Tmax (human, oral, 4 Cogni.Q vegicaps, subject S7 (180 lb), read-out: Tmax) was 4 h and the AUC(0-t) (human, oral, 4 Cogni.Q vegicaps, subject S8 (160 lb), read-out: AUC0-48h) was 1600 nmol·h/L. It also gave a Cmax (human, oral, 4 Cogni.Q vegicaps, subject S8 (160 lb), read-out: Cmax) of 183 nmol/L, a half-life (human, oral, 4 Cogni.Q vegicaps, subject S8 (160 lb), read-out: Terminal t1/2, h (converted)) of 16.7 h and a Tmax (human, oral, 4 Cogni.Q vegicaps, subject S8 (160 lb), read-out: Tmax) of 3 h. It also gave an AUC(0-t) (human, oral, 4 Cogni.Q vegicaps, subject S9 (158 lb), read-out: AUC0-48h) of 80.8 nmol·h/L, a Cmax (human, oral, 4 Cogni.Q vegicaps, subject S9 (158 lb), read-out: Cmax) of 13.6 nmol/L and a half-life (human, oral, 4 Cogni.Q vegicaps, subject S9 (158 lb), read-out: Terminal t1/2, h (converted)) of 19.1 h.
